Patent publication US4345938A, “Herbicidal 2-haloacetanilides” (Monsanto Company, priority 1980, dated 1982)
Read-outs that look alike come from different tables or passages of the source.

Assays:
Format in all cases: in vivo
[1] = tested on: Cyperus serotinus; experiment: Greenhouse transplant rice test, CS; conditions: about 3 WAT, read-out: Percent Inhibition, CS
Source text: (§1) The test procedure used in this greenhouse test is as follows: Ray silt loam top soil containing about 0.05% by weight of krillium and sifted through a […] screen is fumigated about 5-10 days prior to use. Pots are then filled with said Ray silt loam soil to a level to allow for a 1 in. (2.54 cm) flooding depth. Rice plants (Bluebelle) of 2 to 3 weeks age are transplanted to the pots and bulbs or seeds of the test weeds also planted in the pots. The pots are then flooded and the test chemical applied to the surface of the flood water. The flood water is reduced to allow for germination of the Echinochloa crus-galli (barnyardgrass) seed and subsequently reflooded and maintained in that condition. Observations of percent inhibition using a scale of 0-100% are made about 3 weeks after transplant (WAT).
(§2) The test data in Table III for all compounds was obtained under identical test conditions. The weeds used in the tests herein have the following abbreviations in the tables: Echinochloa crus-galli (EC), Monochloria vaginalis (MV), Cyperus Serotinus (CS), Eleocharis Kuroguwai (EK) and Sagittaria trifolia (ST).

[2] = tested on: Rice; experiment: Field transplant rice test, applied 9 DAT, rice injury; conditions: Oryza sativa, 216 h, read-out: Percent Inhibition, Rice; for inhibition at 375 g/ha: 0.375 Kg/Ha; for inhibition at 750 g/ha: 0.75 Kg/Ha; for inhibition at 1500 g/ha: 1.5 Kg/Ha; for inhibition at 3000 g/ha: 3.0 Kg/Ha
How it was run: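 Field transplant rice; herbicides applied as granules (2.5% by weight active, 5.0% for one prior-art comparator) at 9 days after transplant. Rates from 3.0 kg/ha (2.67 lb/A) down to 0.375 kg/ha (0.34 lb/A). Crop injury observed weekly from 3 to 7 weeks after transplant.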

[3] = tested on: Echinochloa crus-galli; experiment: Greenhouse transplant rice test, EC; conditions: about 3 WAT, read-out: Percent Inhibition, EC
Source text: as §1, §2

[4] = tested on: Eleocharis kuroguwai; experiment: Greenhouse transplant rice test, EK; conditions: about 3 WAT, read-out: Percent Inhibition, EK
Source text: as §1, §2

[5] = tested on: Echinochloa crus-galli; experiment: Field transplant rice test, applied 0 DAT, EC; conditions: 0 h, read-out: Percent Inhibition, EC; for inhibition at 375 g/ha: 0.375 Kg/Ha; for inhibition at 750 g/ha: 0.75 Kg/Ha; for inhibition at 1500 g/ha: 1.5 Kg/Ha; for inhibition at 3000 g/ha: 3.0 Kg/Ha
How it was run: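 Field test in transplanted rice, herbicide applied as granules (2.5% or 5.0% w/w active) at transplanting (0 DAT). Rates from 3.0 kg/ha down to 0.375 kg/ha. Weed control observed weekly from 2 to 6 weeks after transplant, reported at 2, 4 and 6 WAT.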

[6] = tested on: Eleocharis kuroguwai; experiment: Field transplant rice test, applied 9 DAT, EK; conditions: for inhibition at 375 g/ha / inhibition at 750 g/ha / inhibition at 1500 g/ha / inhibition at 3000 g/ha: Eleocharis kuroguwai, 216 h, read-out: Percent Inhibition, EK; for inhibition at 375 g/ha: 0.375 Kg/Ha; for inhibition at 750 g/ha: 0.75 Kg/Ha; for inhibition at 1500 g/ha: 1.5 Kg/Ha; for inhibition at 3000 g/ha: 3.0 Kg/Ha
How it was run: (§3)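 Field test in transplanted rice, herbicides applied as granules (2.5% or 5.0% w/w active) 9 days after transplant at 3.0 down to 0.375 kg/ha. Weed control observed weekly from 3 to 7 weeks after transplant.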

[7] = tested on: Monochoria vaginalis; experiment: Field transplant rice test, applied 9 DAT, MV; conditions: for inhibition at 375 g/ha / inhibition at 750 g/ha / inhibition at 1500 g/ha / inhibition at 3000 g/ha: Pontederia vaginalis, 216 h, read-out: Percent Inhibition, MV; for inhibition at 375 g/ha: 0.375 Kg/Ha; for inhibition at 750 g/ha: 0.75 Kg/Ha; for inhibition at 1500 g/ha: 1.5 Kg/Ha; for inhibition at 3000 g/ha: 3.0 Kg/Ha
How it was run: as §3

CCCCOCN(C(=O)CCl)c1c(CC)cccc1CC [Compound A, 2',6'-diethyl-N-(n-butoxymethyl)-2-chloroacetanilide] showed an inhibition at 280 g/ha ([1]; 0.28 Kg/Ha) of 100%, an inhibition at 560 g/ha ([1]; 0.56 Kg/Ha) of 85% and an inhibition at 1120 g/ha ([1]; 1.12 Kg/Ha) of 90%. The inhibition at 2240 g/ha ([1]; 2.24 Kg/Ha) was 100%, the inhibition at 375 g/ha ([2]; 3 WAT) was 10% and the inhibition at 375 g/ha ([2]; 5 WAT) was 8%. The inhibition at 375 g/ha ([2]; 7 WAT) was 8%, the inhibition at 750 g/ha ([2]; 3 WAT) was 13% and the inhibition at 750 g/ha ([2]; 5 WAT) was 3%. The inhibition at 750 g/ha ([2]; 7 WAT) was 7%, the inhibition at 1500 g/ha ([2]; 3 WAT) was 12% and the inhibition at 1500 g/ha ([2]; 5 WAT) was 7%. It also gave an inhibition at 1500 g/ha ([2]; 7 WAT) of 5%, an inhibition at 3000 g/ha ([2]; 3 WAT) of 12% and an inhibition at 3000 g/ha ([2]; 5 WAT) of 7%. It also gave an inhibition at 3000 g/ha ([2]; 7 WAT) of 5%, an inhibition at 280 g/ha ([3]; 0.28 Kg/Ha) of 96% and an inhibition at 560 g/ha ([3]; 0.56 Kg/Ha) of 100%. The inhibition at 1120 g/ha ([3]; 1.12 Kg/Ha) was 100%, the inhibition at 2240 g/ha ([3]; 2.24 Kg/Ha) was 100% and the inhibition at 280 g/ha ([4]; 0.28 Kg/Ha) was 50%. The inhibition at 560 g/ha ([4]; 0.56 Kg/Ha) was 100%, the inhibition at 1120 g/ha ([4]; 1.12 Kg/Ha) was 100% and the inhibition at 2240 g/ha ([4]; 2.24 Kg/Ha) was 100%. The inhibition at 375 g/ha ([5]; 2 WAT) was 60%, the inhibition at 375 g/ha ([5]; 4 WAT) was 72% and the inhibition at 375 g/ha ([5]; 6 WAT) was 60%. The inhibition at 750 g/ha ([5]; 2 WAT) was 90%, the inhibition at 750 g/ha ([5]; 4 WAT) was 100% and the inhibition at 750 g/ha ([5]; 6 WAT) was 100%. It also gave an inhibition at 1500 g/ha ([5]; 2 WAT) of 95%, an inhibition at 1500 g/ha ([5]; 4 WAT) of 100% and an inhibition at 1500 g/ha ([5]; 6 WAT) of 97%. It also gave an inhibition at 3000 g/ha ([5]; 2 WAT) of 98%, an inhibition at 3000 g/ha ([5]; 4 WAT) of 100% and an inhibition at 3000 g/ha ([5]; 6 WAT) of 100%. For the same compound, the “selectivity factor (GR15/GR85), EK in transplant rice” value ([6]; 3 WAT) was “non-selective”, the inhibition at 375 g/ha ([6]; 3 WAT) was 40% and the inhibition at 375 g/ha ([6]; 5 WAT) was 22%. The inhibition at 375 g/ha ([6]; 7 WAT) was 3%, the inhibition at 750 g/ha ([6]; 3 WAT) was 37% and the inhibition at 750 g/ha ([6]; 5 WAT) was 12%. It also gave an inhibition at 750 g/ha ([6]; 7 WAT) of 3%, an inhibition at 1500 g/ha ([6]; 3 WAT) of 55% and an inhibition at 1500 g/ha ([6]; 5 WAT) of 25%. The inhibition at 1500 g/ha ([6]; 7 WAT) was 0%, the inhibition at 3000 g/ha ([6]; 3 WAT) was 68% and the inhibition at 3000 g/ha ([6]; 5 WAT) was 40%. For the same compound, the inhibition at 3000 g/ha ([6]; 7 WAT) was 0%, the inhibition at 375 g/ha ([7]; 3 WAT) was 90% and the inhibition at 375 g/ha ([7]; 5 WAT) was 98%. It also gave an inhibition at 375 g/ha ([7]; 7 WAT) of 80%, an inhibition at 750 g/ha ([7]; 3 WAT) of 92% and an inhibition at 750 g/ha ([7]; 5 WAT) of 87%. It also gave an inhibition at 750 g/ha ([7]; 7 WAT) of 60%, an inhibition at 1500 g/ha ([7]; 3 WAT) of 100% and an inhibition at 1500 g/ha ([7]; 5 WAT) of 100%. The inhibition at 1500 g/ha ([7]; 7 WAT) was 100%, the inhibition at 3000 g/ha ([7]; 3 WAT) was 100% and the inhibition at 3000 g/ha ([7]; 5 WAT) was 100%. The inhibition at 3000 g/ha ([7]; 7 WAT) was 100% and the “selectivity factor (GR15/GR85), MV in transplant rice” value ([7]; between 3 WAT and 7 WAT) was 8.
